System: anesthetized open-chest dogs
Assay: Hemodynamics of anesthetized open-chest dogs, intravenous infusion
Assay type: in vivo, mongrel dogs
Details: 0.3 mg/kg iv
Experimental: The animals were anesthetized by intravenous injection of 30 mg/kg sodium pentobarbital, tracheally intubated, and mechanically ventilated with positive air pressure. Left thoracotomy was performed through the fourth intercostal space and the heart was suspended in a pericardial cradle, the aortic root was isolated and a probe of blood flow meter (12 or 14 mm in diameter) was fixed to measure the aortic blood flow as a representation of cardiac output (CO), the circumflex branch of left coronary artery was isolated and a probe of blood flow meter (2 or 2.5 mm in diameter) was fixed to measure the coronary blood flow (CBF). A polyethylene catheter filled with heparin physiological saline was inserted through cardiac apex into the left ventricle to measure the left ventricular pressure (LVP) and left ventricular end-diastolic pressure (LVEDP), Peak positive and peak negative first derivatives of the LVP (+ LVdp/dt and − LVdp/dt) were calculated with the Acknowledge software. The systolic blood pressure (SBP), diastolic blood pressure (DBP) and mean arterial pressure (MAP) were measured by polyethylene catheter via the femoral artery, ECG □ was measured by a AC-601G ECG amplifier. The above-mentioned analog signal was input into a data acquisition workstation (MP100, BIOPAC Systems, USA) to a computer running Acknowledge (version 3.7.1).
After surgery, various indexes before administration were recorded until the indexes were stable, and then intravenous infusion administration was conducted. Thirty dogs were divided into five groups (six dogs in each group), the experiment groups were given 0.15, 0.3, 0.6 mg/kg of ASP-[…] respectively, the normal control group was given 1 ml/kg of solvent, and the positive control group was given 0.3 mg/kg of astragaloside IV. The delivery volumes were 15 ml for each dog was and the delivery velocity was 1 ml/min. The indexes were recorded at 5, 10, 15, 20, 30, 45, 60, 90 and 120 mins after drug administration. At the end of experiment, the hearts were excised and weighted. The myocardial blood flow for per hectogram (CF), coronary resistance (CR), cardiac index (CI), left ventricular work (LVW) and total peripheral resistance (TPR) were calculated according to the following formulae: CF=CBF×[…]/heart weight CR=MAP/CF CI=CO/0.11×(body weight)^2/3 LVW=CO×(MAP−5)×1.052×0.0136 TPR=MAP×79.92/CO
Data are expressed as mean±SD ( x±s), the paired t-test was used to compare the significance between before and after administration, the unpaired t-test was adopted for comparison between groups.

CC(C)(O)[C@@H]1CC[C@](C)([C@H]2[C@@H](O)C[C@@]3(C)[C@@H]4C[C@H](O[C@@H]5O[C@H](CO)[C@@H](O)[C@H](O)[C@H]5O)[C@H]5C(C)(C)[C@@H](O[C@@H]6OC[C@@H](O)[C@H](O)[C@H]6O)CC[C@@]56C[C@@]46CC[C@]23C)O1 [astragaloside IV, reference compound]
TPR (30 min after administration): 5430 ± 1302 dyn · s/cm^5
TPR change vs before administration (30 min after administration): (206 ± 718) dyn · s/cm^5
dp/dt (30 min after administration): 1140 ± 92 mmHg/s
dp/dt change vs before administration (30 min after administration): (85 ± 84) mmHg/s
−dp/dt (30 min after administration): −807 ± 124 mmHg/s
−dp/dt change vs before administration (30 min after administration): (28 ± 160) mmHg/s
CF (45 min after administration): 54.0 ± 15.0 ml/min/100 g
CF change vs before administration (45 min after administration): (−2.9 ± 7.7) ml/min/100 g
CI (45 min after administration): 2.08 ± 0.52 L/min/m^2
CI change vs before administration (45 min after administration): (−0.06 ± 0.19) L/min/m^2
CO (45 min after administration): 1.17 ± 0.32 L/min
CO change vs before administration (45 min after administration): (−0.03 ± 0.10) L/min
CR (45 min after administration): 1.44 ± 0.50 mmHg/ml/min/100 g
CR change vs before administration (45 min after administration): (0.04 ± 0.25) mmHg/ml/min/100 g
LVEDP (45 min after administration): 0.9 ± 2.1 mmHg
LVEDP change vs before administration (45 min after administration): (−1.55 ± 1.42) mmHg
LVP (45 min after administration): 98 ± 10 mmHg
LVP change vs before administration (45 min after administration): (−4.5 ± 11.7) mmHg
LVW (45 min after administration): 1.14 ± 0.40 kg · m
LVW change vs before administration (45 min after administration): (−0.07 ± 0.11) kg · m
TPR (45 min after administration): 5301 ± 1638 dyn · s/cm^5
TPR change vs before administration (45 min after administration): (77 ± 552) dyn · s/cm^5
dp/dt (45 min after administration): 1124 ± 163 mmHg/s
dp/dt change vs before administration (45 min after administration): (69 ± 73) mmHg/s
−dp/dt (45 min after administration): −809 ± 137 mmHg/s
−dp/dt change vs before administration (45 min after administration): (26 ± 159) mmHg/s
CF (60 min after administration): 53.7 ± 18.1 ml/min/100 g
CF change vs before administration (60 min after administration): (−3.3 ± 5.1) ml/min/100 g
CI (60 min after administration): 2.10 ± 0.53 L/min/m^2
CI change vs before administration (60 min after administration): (−0.05 ± 0.11) L/min/m^2
CO (60 min after administration): 1.18 ± 0.34 L/min
CO change vs before administration (60 min after administration): (−0.02 ± 0.06) L/min
CR (60 min after administration): 1.51 ± 0.64 mmHg/ml/min/100 g
CR change vs before administration (60 min after administration): (0.10 ± 0.23) mmHg/ml/min/100 g
LVEDP (60 min after administration): 0.8 ± 1.7 mmHg
LVEDP change vs before administration (60 min after administration): (−1.57 ± 1.39) mmHg
LVP (60 min after administration): 98 ± 11 mmHg
LVP change vs before administration (60 min after administration): (−5.3 ± 15.3) mmHg
LVW (60 min after administration): 1.16 ± 0.47 kg · m
LVW change vs before administration (60 min after administration): (−0.05 ± 0.09) kg · m
TPR (60 min after administration): 5278 ± 1714 dyn · s/cm^5
TPR change vs before administration (60 min after administration): (54 ± 458) dyn · s/cm^5
dp/dt (60 min after administration): 1098 ± 192 mmHg/s
dp/dt change vs before administration (60 min after administration): (43 ± 77) mmHg/s
−dp/dt (60 min after administration): −788 ± 126 mmHg/s
−dp/dt change vs before administration (60 min after administration): (48 ± 177) mmHg/s
CF (90 min after administration): 57.4 ± 19.0 ml/min/100 g
CF change vs before administration (90 min after administration): (0.4 ± 9.5) ml/min/100 g
CI (90 min after administration): 2.15 ± 0.52 L/min/m^2
CI change vs before administration (90 min after administration): (0.01 ± 0.08) L/min/m^2
CO (90 min after administration): 1.21 ± 0.32 L/min
CO change vs before administration (90 min after administration): (0.00 ± 0.05) L/min
CR (90 min after administration): 1.43 ± 0.83 mmHg/ml/min/100 g
CR change vs before administration (90 min after administration): (0.02 ± 0.51) mmHg/ml/min/100 g
LVEDP (90 min after administration): 1.4 ± 0.5 mmHg
LVEDP change vs before administration (90 min after administration): (−0.97 ± 0.77) mmHg
LVP (90 min after administration): 99 ± 15 mmHg
LVP change vs before administration (90 min after administration): (−4.2 ± 18.7) mmHg
LVW (90 min after administration): 1.14 ± 0.44 kg · m
LVW change vs before administration (90 min after administration): (−0.07 ± 0.08) kg · m
TPR (90 min after administration): 4952 ± 1517 dyn · s/cm^5
TPR change vs before administration (90 min after administration): (−272 ± 349) dyn · s/cm^5
dp/dt (90 min after administration): 1100 ± 160 mmHg/s
dp/dt change vs before administration (90 min after administration): (45 ± 73) mmHg/s
−dp/dt (90 min after administration): −762 ± 139 mmHg/s
−dp/dt change vs before administration (90 min after administration): (74 ± 184) mmHg/s
CF (120 min after administration): 55.6 ± 19.7 ml/min/100 g
CF change vs before administration (120 min after administration): (−1.4 ± 11.1) ml/min/100 g
CI (120 min after administration): 2.14 ± 0.50 L/min/m^2
CI change vs before administration (120 min after administration): (0.00 ± 0.06) L/min/m^2
CO (120 min after administration): 1.20 ± 0.30 L/min
CO change vs before administration (120 min after administration): (0.00 ± 0.03) L/min
CR (120 min after administration): 1.51 ± 0.82 mmHg/ml/min/100 g
CR change vs before administration (120 min after administration): (0.11 ± 0.41) mmHg/ml/min/100 g
LVEDP (120 min after administration): 1.8 ± 0.8 mmHg
LVEDP change vs before administration (120 min after administration): (−0.66 ± 0.47) mmHg
LVP (120 min after administration): 97 ± 14 mmHg
LVP change vs before administration (120 min after administration): (−5.5 ± 19.3) mmHg
LVW (120 min after administration): 1.17 ± 0.45 kg · m
LVW change vs before administration (120 min after administration): (−0.04 ± 0.05) kg · m
TPR (120 min after administration): 5046 ± 1440 dyn · s/cm^5
TPR change vs before administration (120 min after administration): (−178 ± 394) dyn · s/cm^5
dp/dt (120 min after administration): 1088 ± 182 mmHg/s
dp/dt change vs before administration (120 min after administration): (33 ± 59) mmHg/s
−dp/dt (120 min after administration): −748 ± 167 mmHg/s
−dp/dt change vs before administration (120 min after administration): (88 ± 215) mmHg/s
CF (before administration): 57 ± 16.1 ml/min/100 g
CI (before administration): 2.14 ± 0.52 L/min/m^2
CO (before administration): 1.20 ± 0.32 L/min
CR (before administration): 1.40 ± 0.49 mmHg/ml/min/100 g
LVEDP (before administration): 2.4 ± 1.1 mmHg
LVP (before administration): 103 ± 12 mmHg
LVW (before administration): 1.21 ± 0.44 kg · m
TPR (before administration): 5224 ± 1465 dyn · s/cm^5
dp/dt (before administration): 1055 ± 157 mmHg/s
−dp/dt (before administration): −836 ± 194 mmHg/s
Heart rate (vs pre-administration): decreased slightly
blood pressure (vs pre-administration): no significant change
CF and CR (within 120 min): no significant changes

Source: patent publication US8835134B2, “Cycloastragenol monoglucoside, preparation, pharmaceutical composition and application thereof” (Tianjin Institute of Pharmaceutical Research, priority 2007, dated 2014)
